Data on 35 molecules can be found in ChEMBL document CHEMBL1132364, “Structure-activity relationship of N-(phenylalkyl)cinnamides as novel NR2B subtype-selective NMDA receptor antagonists” (J Med Chem, 1999).

Where only a bound is given, the exact number is not on record here.

Experiment [1] concerns the target Glutamate NMDA receptor; Grin1/Grin2a (Rattus norvegicus, UniProt P35439+Q00959). Description: Antagonistic activity against N-methyl-D-aspartate glutamate receptor 1/2A. Type of experiment: functional.
Experiment [2] has as its target Glutamate NMDA receptor; Grin1/Grin2c (Rattus norvegicus, UniProt P35439+Q00961). Description: Antagonistic activity against N-methyl-D-aspartate glutamate receptor 1/2C. Type of experiment: functional.
Experiment [3] concerns the target Glutamate NMDA receptor; Grin1/Grin2b (Rattus norvegicus, UniProt P35439+Q00960). Description: Antagonistic activity against N-methyl-D-aspartate glutamate receptor 1/2B. Type of experiment: functional.
The target of experiment [4] is T1, Alpha-1A adrenergic receptor (Homo sapiens, UniProt P35348).
T1 sequence (P35348 whole entry): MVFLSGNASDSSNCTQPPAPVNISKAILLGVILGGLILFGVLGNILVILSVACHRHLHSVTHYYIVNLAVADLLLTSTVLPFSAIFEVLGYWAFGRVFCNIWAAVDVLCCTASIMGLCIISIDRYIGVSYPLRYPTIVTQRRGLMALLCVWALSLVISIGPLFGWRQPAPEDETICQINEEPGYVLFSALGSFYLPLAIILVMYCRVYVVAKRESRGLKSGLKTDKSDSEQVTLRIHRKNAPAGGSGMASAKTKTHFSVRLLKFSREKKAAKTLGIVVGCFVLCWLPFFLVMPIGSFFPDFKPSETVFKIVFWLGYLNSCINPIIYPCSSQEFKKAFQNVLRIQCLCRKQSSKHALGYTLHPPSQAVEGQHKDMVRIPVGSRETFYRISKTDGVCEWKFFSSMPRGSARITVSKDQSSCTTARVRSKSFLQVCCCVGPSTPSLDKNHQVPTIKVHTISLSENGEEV
Description: Inhibition of Alpha-1 adrenergic receptor.

Experiment [5] has as its target Epidermal growth factor receptor (Homo sapiens, UniProt P00533). Description: Inhibition of Epidermal growth factor receptor autophosphorylation.

Sequence of Glutamate NMDA receptor; Grin1/Grin2a (Q00959 whole entry, other chains not shown): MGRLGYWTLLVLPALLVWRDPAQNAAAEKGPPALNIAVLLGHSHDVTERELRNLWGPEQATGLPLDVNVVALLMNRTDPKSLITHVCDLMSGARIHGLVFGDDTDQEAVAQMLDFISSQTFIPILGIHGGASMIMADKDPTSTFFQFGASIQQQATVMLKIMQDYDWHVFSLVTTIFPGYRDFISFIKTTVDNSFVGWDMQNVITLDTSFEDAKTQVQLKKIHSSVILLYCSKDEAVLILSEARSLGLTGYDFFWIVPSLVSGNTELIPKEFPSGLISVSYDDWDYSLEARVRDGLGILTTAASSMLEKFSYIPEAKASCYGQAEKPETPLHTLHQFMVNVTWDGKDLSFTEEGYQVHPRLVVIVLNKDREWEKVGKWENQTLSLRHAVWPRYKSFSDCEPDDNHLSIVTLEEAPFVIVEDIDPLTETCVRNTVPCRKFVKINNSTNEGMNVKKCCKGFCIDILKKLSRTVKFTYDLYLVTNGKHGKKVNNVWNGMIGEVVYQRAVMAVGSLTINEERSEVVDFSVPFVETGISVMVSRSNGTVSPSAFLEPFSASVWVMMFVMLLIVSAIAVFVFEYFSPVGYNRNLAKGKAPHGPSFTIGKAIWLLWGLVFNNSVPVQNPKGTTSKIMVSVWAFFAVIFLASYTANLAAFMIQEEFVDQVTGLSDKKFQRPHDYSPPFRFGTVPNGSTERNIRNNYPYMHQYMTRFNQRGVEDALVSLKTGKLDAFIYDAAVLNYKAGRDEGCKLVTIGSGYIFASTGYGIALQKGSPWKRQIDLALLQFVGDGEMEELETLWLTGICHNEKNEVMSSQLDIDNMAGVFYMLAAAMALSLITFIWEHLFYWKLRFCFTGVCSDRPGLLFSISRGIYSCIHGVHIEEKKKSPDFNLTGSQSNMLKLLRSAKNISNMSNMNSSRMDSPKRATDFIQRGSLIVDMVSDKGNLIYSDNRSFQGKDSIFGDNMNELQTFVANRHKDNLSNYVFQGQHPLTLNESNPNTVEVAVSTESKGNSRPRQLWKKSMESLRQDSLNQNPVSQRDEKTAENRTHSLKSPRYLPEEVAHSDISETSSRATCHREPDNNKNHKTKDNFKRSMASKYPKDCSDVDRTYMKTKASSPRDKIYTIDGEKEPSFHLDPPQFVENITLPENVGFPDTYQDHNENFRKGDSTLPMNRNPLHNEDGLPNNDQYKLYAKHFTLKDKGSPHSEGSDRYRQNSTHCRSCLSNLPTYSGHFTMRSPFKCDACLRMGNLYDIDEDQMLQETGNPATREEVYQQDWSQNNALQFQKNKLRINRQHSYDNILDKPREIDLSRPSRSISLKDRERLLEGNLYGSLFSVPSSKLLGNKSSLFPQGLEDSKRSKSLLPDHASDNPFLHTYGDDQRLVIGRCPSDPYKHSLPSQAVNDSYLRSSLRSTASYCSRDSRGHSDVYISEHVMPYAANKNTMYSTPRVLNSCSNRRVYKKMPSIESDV
Sequence of Glutamate NMDA receptor; Grin1/Grin2c (Q00961 whole entry, other chains not shown): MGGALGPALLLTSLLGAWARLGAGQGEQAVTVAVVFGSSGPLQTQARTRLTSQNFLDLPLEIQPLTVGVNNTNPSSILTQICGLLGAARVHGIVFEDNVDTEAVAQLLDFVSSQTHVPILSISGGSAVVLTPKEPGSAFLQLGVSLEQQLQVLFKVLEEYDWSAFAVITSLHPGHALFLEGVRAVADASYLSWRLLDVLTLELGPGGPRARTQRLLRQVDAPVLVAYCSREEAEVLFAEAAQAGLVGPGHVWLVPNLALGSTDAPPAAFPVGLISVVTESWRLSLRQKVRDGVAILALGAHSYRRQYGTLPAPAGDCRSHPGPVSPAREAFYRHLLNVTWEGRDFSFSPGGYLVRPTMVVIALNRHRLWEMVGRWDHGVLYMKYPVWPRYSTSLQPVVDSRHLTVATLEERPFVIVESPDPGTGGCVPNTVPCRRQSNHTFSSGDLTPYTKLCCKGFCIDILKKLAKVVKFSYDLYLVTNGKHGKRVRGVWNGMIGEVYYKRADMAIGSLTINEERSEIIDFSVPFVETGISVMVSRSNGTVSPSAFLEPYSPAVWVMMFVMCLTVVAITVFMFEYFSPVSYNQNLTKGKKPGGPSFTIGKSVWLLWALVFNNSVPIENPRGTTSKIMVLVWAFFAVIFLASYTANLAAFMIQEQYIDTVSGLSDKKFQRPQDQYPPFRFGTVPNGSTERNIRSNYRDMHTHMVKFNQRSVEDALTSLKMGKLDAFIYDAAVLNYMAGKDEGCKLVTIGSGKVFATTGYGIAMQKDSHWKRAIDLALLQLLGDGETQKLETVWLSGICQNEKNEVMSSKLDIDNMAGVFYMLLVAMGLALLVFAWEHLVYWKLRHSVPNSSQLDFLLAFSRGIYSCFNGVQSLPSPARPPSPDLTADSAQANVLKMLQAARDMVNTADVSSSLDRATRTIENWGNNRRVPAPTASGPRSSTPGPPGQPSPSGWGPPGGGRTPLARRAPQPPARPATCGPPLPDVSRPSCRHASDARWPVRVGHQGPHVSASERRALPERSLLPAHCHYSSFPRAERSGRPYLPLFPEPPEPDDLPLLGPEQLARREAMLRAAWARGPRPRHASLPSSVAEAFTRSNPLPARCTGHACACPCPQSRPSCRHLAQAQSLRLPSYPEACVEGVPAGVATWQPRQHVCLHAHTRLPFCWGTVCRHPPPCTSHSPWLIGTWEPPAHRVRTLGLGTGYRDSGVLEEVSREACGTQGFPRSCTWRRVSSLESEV
Sequence of Glutamate NMDA receptor; Grin1/Grin2b (Q00960 whole entry, other chains not shown): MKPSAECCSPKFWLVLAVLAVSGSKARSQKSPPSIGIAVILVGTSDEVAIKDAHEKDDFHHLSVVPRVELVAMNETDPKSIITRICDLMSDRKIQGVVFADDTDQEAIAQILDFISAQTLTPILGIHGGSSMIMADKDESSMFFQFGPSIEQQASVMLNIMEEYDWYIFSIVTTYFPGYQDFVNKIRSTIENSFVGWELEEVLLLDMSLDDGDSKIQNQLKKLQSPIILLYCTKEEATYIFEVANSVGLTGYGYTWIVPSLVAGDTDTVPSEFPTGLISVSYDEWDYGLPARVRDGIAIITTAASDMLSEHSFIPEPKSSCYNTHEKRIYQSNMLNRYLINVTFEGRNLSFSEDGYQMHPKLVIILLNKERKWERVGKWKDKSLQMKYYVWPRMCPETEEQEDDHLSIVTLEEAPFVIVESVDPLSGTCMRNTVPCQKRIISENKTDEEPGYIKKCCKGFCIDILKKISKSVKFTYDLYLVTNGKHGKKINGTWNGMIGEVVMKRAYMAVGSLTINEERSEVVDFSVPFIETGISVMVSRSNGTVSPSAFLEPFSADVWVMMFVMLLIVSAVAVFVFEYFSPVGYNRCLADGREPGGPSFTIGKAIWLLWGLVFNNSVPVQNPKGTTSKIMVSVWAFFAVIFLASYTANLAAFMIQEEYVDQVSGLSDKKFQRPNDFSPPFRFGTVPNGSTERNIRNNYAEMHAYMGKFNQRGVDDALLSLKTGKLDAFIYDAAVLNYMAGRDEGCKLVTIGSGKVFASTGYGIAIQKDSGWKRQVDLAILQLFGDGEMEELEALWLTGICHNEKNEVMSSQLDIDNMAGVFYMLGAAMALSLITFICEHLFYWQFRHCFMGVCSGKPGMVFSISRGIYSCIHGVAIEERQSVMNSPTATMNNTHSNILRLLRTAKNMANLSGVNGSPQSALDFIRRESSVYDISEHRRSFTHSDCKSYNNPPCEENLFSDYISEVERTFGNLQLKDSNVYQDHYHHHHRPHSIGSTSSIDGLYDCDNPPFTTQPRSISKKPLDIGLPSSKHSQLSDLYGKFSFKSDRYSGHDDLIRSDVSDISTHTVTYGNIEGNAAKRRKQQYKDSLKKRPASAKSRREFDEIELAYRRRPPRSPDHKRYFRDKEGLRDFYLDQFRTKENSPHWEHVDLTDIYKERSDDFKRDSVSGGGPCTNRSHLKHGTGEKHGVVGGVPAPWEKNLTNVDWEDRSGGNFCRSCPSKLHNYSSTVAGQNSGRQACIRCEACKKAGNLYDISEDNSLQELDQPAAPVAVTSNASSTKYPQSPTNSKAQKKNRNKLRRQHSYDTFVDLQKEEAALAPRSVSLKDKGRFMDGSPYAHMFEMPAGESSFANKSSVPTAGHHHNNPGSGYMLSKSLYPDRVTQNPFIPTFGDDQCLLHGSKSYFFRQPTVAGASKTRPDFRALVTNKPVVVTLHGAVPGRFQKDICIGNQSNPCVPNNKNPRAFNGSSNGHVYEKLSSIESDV

`N#C/C(=C\c1ccccc1)C(=O)NCCCCc1ccccc1`: the IC50 in experiment [1] was more than 100 µM; in experiment [2], more than 100 µM; in experiment [3], 80 µM.
Turning to `CCN(CC)CCOc1ccc(CCNC(=O)/C=C/c2ccc(Cl)cc2)cc1`, the values for the IC50 in experiment [1], in experiment [2] and in experiment [3] were 49 µM, more than 100 µM and 32 µM, respectively.
In the case of `O=C(/C=C/c1ccccc1)NCCc1ccc(O)cc1`, the IC50 was more than 100 µM in experiment [1], more than 100 µM in experiment [2] and 0.68 µM in experiment [3].
In the case of `O=C(/C=C/c1ccc(Cl)cc1)NCCc1cccc(O)c1`, the IC50 in experiment [1] was more than 100 µM; in experiment [2] it was more than 100 µM; in experiment [3], 7.4 µM.
`N#C/C(=C\c1ccc(O)c(O)c1)C(=O)NCc1ccccc1`: the IC50 in experiment [1] worked out at 19 µM; in experiment [2], 100 µM; in experiment [3] it was 45 µM.
The like results for `O=C(O)COc1ccc(CCNC(=O)/C=C/c2ccc(Cl)cc2)cc1` were, in that order, 45 µM, more than 100 µM and 52 µM.
On to `O=C(/C=C/c1ccc(O)cc1)NCCCCc1ccccc1`, for which the half-maximal inhibitory concentration (IC50) in experiment [1] was more than 100 µM; in experiment [2] it was more than 100 µM; in experiment [4] it was more than 100 µM; in experiment [3], 0.077 µM.
As for `N#C/C(=C\c1ccc(O)cc1)C(=O)NCCCCc1ccccc1`, the IC50 in experiment [1] is more than 100 µM; in experiment [2] it was more than 100 µM; in experiment [3] it was 0.29 µM.
For the molecule `O=C(/C=C/c1cc(Cl)ccc1Cl)NCCCCc1ccccc1`, the IC50 in experiment [1], in experiment [2] and in experiment [3] was more than 100 µM in each case.
Turning to `N#C/C(=C\c1ccc(F)cc1)C(=O)NCCCCc1ccccc1`, the IC50 in experiment [1], in experiment [2] and in experiment [3] was more than 100 µM in each case.
Consider `O=C(/C=C/c1ccc(Cl)cc1Cl)NCCc1ccc(O)cc1`, for which the IC50 in experiment [1] is more than 100 µM; in experiment [2] it was more than 100 µM; in experiment [4], more than 100 µM; in experiment [3], 19 µM.
`N#C/C(=C\c1cccc(O)c1)C(=O)NCCCCc1ccccc1`: the IC50 in experiment [1], in experiment [2] and in experiment [3] was more than 100 µM throughout.
Take `N#C/C(=C\c1ccc(O)c(O)c1)C(=O)NCCc1ccccc1`: the IC50 was less than 0.625 µM in experiment [5], more than 100 µM in experiment [1], more than 100 µM in experiment [2] and 1.7 µM in experiment [3].
For `O=C(/C=C/c1ccc(Cl)cc1)NCCc1ccc(O)cc1`, the IC50 was more than 100 µM in experiment [1], more than 100 µM in experiment [2] and 0.17 µM in experiment [3].
For the molecule `O=C(/C=C/c1ccc(Cl)cc1)NCCc1ccccc1`, the IC50 in experiment [1], in experiment [2] and in experiment [3] was more than 100 µM in each case.
`O=C(/C=C/c1ccc(O)cc1)N1CCC(Cc2ccccc2)CC1`: the IC50 in experiment [1], in experiment [2] and in experiment [4] was more than 100 µM throughout.
Consider `C[C@@H](CN1CCC(Cc2ccccc2)CC1)[C@@H](O)c1ccc(O)cc1`, for which the IC50 came out at 52 µM in experiment [1] and 0.009 µM in experiment [3].
`N#C/C(=C\c1ccc(O)c(O)c1)C(=O)NCCCc1ccccc1`: the figures for the IC50 in experiment [1], in experiment [2] and in experiment [3] were more than 100 µM, 60 µM and 0.66 µM, respectively.
In the case of `O=C(/C=C/c1ccccc1)NCCCCc1ccccc1`, the IC50 in experiment [1] was more than 100 µM; in experiment [2], more than 100 µM; in experiment [3] it was 24 µM.
Consider `O=C(/C=C/c1ccc(O)cc1)NCCc1ccc(Cl)cc1`, for which the IC50 in experiment [1] was more than 100 µM; in experiment [2] it was more than 100 µM; in experiment [3], 0.33 µM.
As to `N#C/C(=C\c1ccc(Cl)cc1)C(=O)NCCCCc1ccccc1`, the IC50 in experiment [1], in experiment [2] and in experiment [3] was more than 100 µM in each case.
As for `O=C(CCc1ccc(O)cc1)NCCCCc1ccccc1`, the IC50 in experiment [1] is more than 100 µM; in experiment [2], more than 100 µM; in experiment [3] it was 0.43 µM.
As to `O=C(/C=C/c1ccc(O)cc1)NCCCCc1ccc(Cl)cc1`, the IC50 in experiment [1] is more than 100 µM; in experiment [2] it was more than 100 µM; in experiment [3], 0.125 µM.
On to `O=C(/C=C/c1ccc(Cl)cc1)NCCc1ccccc1O`, for which the IC50 in experiment [1] is more than 100 µM; in experiment [2], more than 100 µM; in experiment [3], 8.3 µM.
Consider `N#C/C(=C\c1ccc(O)c(O)c1)C(=O)Nc1ccccc1`, for which the IC50 in experiment [1] is more than 100 µM; in experiment [2], more than 100 µM; in experiment [3], 90 µM.
In the case of `O=C(/C=C/c1ccc(O)cc1)NCCc1ccccc1`, the figures for the IC50 in experiment [1], in experiment [2] and in experiment [3] were more than 100 µM, more than 100 µM and 1.5 µM, respectively.
As to `N#C/C(=C\c1ccc(O)c(O)c1)C(=O)NCCCCc1ccccc1`, the IC50 in experiment [1] was more than 100 µM; in experiment [2] it was more than 100 µM; in experiment [4] it was more than 100 µM; in experiment [3], 0.56 µM.
On to `N#C/C(=C\C(=O)NCCc1ccc(O)cc1)c1ccc(Cl)cc1`, for which the IC50 in experiment [1] was more than 100 µM; in experiment [2], more than 100 µM; in experiment [3], 9 µM.
`O=C(/C=C/c1ccc(Cl)cc1)NCCc1ccc(Cl)cc1`: the 50% inhibitory concentration (IC50) in experiment [1], in experiment [2] and in experiment [3] was more than 100 µM in each case.
`C[C@@H]([C@@H](O)c1ccc(O)cc1)N1CCC(O)(c2ccccc2)CC1` [TRAXOPRODIL]: the IC50 in experiment [1] and in experiment [2] was more than 100 µM in each case.
Molecule `C[C@H]([C@@H](O)c1ccc(O)cc1)N1CCC(Cc2ccccc2)CC1` [(S,R)-IFENPRODIL] displayed an IC50 in experiment [4] of 0.1 µM.
On to `O=C(/C=C/c1ccc(O)cc1)NCCc1ccc(O)cc1` [N-P-COUMAROYL TYRAMINE], for which the figures for the IC50 in experiment [1], in experiment [2] and in experiment [3] were more than 100 µM, more than 100 µM and 21 µM, respectively.
Turning to `O=C(CCCCCc1ccccc1)CCc1ccc(O)cc1`, the IC50 in experiment [1] was 23 µM; in experiment [2] it was more than 100 µM; in experiment [3] it was 1.8 µM.
Turning to `N#C/C(=C\c1ccc(Cl)cc1)C(=O)NCCc1ccc(O)cc1`, the half-maximal inhibitory concentration (IC50) in experiment [1] is 78 µM; in experiment [2], more than 100 µM; in experiment [3] it was 3.4 µM.
For the molecule `N#C/C(=C\C(=O)NCCc1ccc(O)cc1)c1ccccc1`, the IC50 was more than 100 µM in experiment [1], more than 100 µM in experiment [2] and 46 µM in experiment [3].
